# Biological target: T1, JNK1 (Homo sapiens, UniProt P45983)
# T1 construct: purchased Carna Biosciences
# Test: JNK1 biochemical assays (one or more of: time resolved fluorescence, Z'-LYTE Cascade, radioactive)
# Settings: Table 2; JNK1 IC50 activity level; read-out: Act. Level
# T1 sequence (P45983 whole entry): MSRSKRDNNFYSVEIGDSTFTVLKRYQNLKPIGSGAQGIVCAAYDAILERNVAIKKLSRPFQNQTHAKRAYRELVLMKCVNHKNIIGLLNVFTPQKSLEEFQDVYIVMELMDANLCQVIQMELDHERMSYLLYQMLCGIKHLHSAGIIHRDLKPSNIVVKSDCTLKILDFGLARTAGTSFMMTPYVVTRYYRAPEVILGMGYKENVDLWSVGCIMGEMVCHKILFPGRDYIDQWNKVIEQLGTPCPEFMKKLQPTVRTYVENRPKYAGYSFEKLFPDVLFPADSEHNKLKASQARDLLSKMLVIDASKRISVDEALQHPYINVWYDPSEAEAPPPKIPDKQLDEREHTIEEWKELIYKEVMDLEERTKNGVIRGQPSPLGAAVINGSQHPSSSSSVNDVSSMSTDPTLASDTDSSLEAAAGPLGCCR
row,IC50 [nM],SMILES
1,< 200,"COc1ccc(Nc2ncc(C(N)=O)c(Nc3ccccc3)n2)cn1 [Example B-16, 2-(6-methoxypyridin-3-ylamino)-4-(phenylamino)pyrimidine-5-carboxamide]"
2,< 200,"CNC(=O)[C@H]1CC[C@H](Nc2ncc(C(N)=O)c(Nc3ccccc3)n2)CC1 [Example B-8, 2-((1r,4r)-4-(methylcarbamoyl)cyclohexylamino)-4-(phenylamino)pyrimidine-5-carboxamide]"
3,1000 to 10000,"C[C@H](Nc1ncc(C(N)=O)c(N[C@@H]2CCC[C@H](O)C2)n1)c1ccc(F)cc1 [Example B-90, 2-((S)-1-(4-fluorophenyl)ethylamino)-4-((1R,3S)-3-hydroxycyclohexylamino)pyrimidine-5-carboxamide]"
4,1000 to 10000,"CC(=O)N1CCC(Nc2ncc(C(N)=O)c(Nc3ccccc3)n2)CC1 [Example B-10, 2-(1-acetylpiperidin-4-ylamino)-4-(phenylamino)pyrimidine-5-carboxamide]"
5,1000 to 10000,"CC(=O)NCCNc1ncc(C(N)=O)c(Nc2ccccc2)n1 [Example B-41, 2-(2-acetamidoethylamino)-4-(phenylamino)pyrimidine-5-carboxamide]"
6,< 200,"NC(=O)c1cnc(NC2CCOCC2)nc1Nc1ccc2ncccc2c1 [Example B-2, 4-(quinolin-6-ylamino)-2-(tetrahydro-2H-pyran-4-ylamino)pyrimidine-5-carboxamide]"

# Same assay, conditions: Table 3; JNK1 IC50 activity level; read-out: Act. Level
row,IC50 [nM],SMILES
1,< 200,"C[C@@H]1CC[C@@H](Nc2nc(N[C@H]3CC[C@H](C(=O)N(C)C)CC3)ncc2C#N)C[C@H]1O [Example C-47, (1R,4r)-4-(5-cyano-4-((1R,3R,4R)-3-hydroxy-4-methylcyclohexylamino)pyrimidin-2-ylamino)-N,N-dimethylcyclohexanecarboxamid]"
2,< 200,"CN(C)C(=O)[C@H]1CC[C@H](Nc2ncc(C#N)c(N[C@@H]3CCC[C@](C)(O)C3)n2)CC1 [Example C-43, (1R,4r)-4-(5-cyano-4-((1R,3S)-3-hydroxy-3-methylcyclohexylamino)pyrimidin-2-ylamino)-N,N-dimethylcyclohexanecarboxamide]"
3,200 to 800,"CO[C@H]1CC[C@H](Nc2ncc(C#N)c(N[C@H]3CC[C@@H](O)CC3)n2)CC1 [Example C-12, 4-((1s,4s)-4-hydroxycyclohexylamino)-2-((1r,4r)-4-methoxycyclohexylamino) pyrimidine-5-carbonitrile]"

# Same assay, conditions: one or more of the JNK1 biochemical assays; read-out: Act. Level (JNK1 IC50 activity level)
row,IC50 [nM],SMILES
1,< 200,"CC1(Nc2nc(N[C@H]3CC[C@H](O)CC3)ncc2C(N)=O)CCC1 [Example 239, 2-((1r,4r)-4-hydroxycyclohexylamino)-4-(1-methylcyclobutylamino)pyrimidine-5-carboxamide]"
2,< 200,"CO[C@H]1CC[C@H](Nc2ncc(C(N)=O)c(N[C@H](C)C(C)C)n2)CC1 [Example 291, 2-((1r,4R)-4-methoxycyclohexylamino)-4-((R)-3-methylbutan-2-ylamino)pyrimidine-5-carboxamide]"
3,< 200,"NC(=O)c1cnc(N[C@H]2CC[C@H](OC3CC3)CC2)nc1NC12CC(C1)C2 [Example 368, 4-(bicyclo[1.1.1]pentan-1-ylamino)-2-((1r,4r)-4-cyclopropoxycyclohexylamino)pyrimidine-5-carboxamide]"
4,< 200,"NC(=O)c1cnc(NC2CC2)nc1N[C@@H]1CCC[C@H](O)C1 [Example 379, 2-(cyclopropylamino)-4-((1R,3S)-3-hydroxycyclohexylamino)pyrimidine-5-carboxamide]"
5,< 200,"CCO[C@H]1CC[C@H](Nc2ncc(C(N)=O)c(N[C@@H](C)C(C)C)n2)CC1 [Example 282, 2-((1r,4S)-4-ethoxycyclohexylamino)-4-((S)-3-methylbutan-2-ylamino)pyrimidine-5-carboxamide]"
6,< 200,"CC(C)(C)C(C)(C)Nc1nc(N[C@H]2CC[C@H](O)CC2)ncc1C(N)=O [Example 334, 2-((1r,4r)-4-hydroxycyclohexylamino)-4-(2,3,3-trimethylbutan-2-ylamino)pyrimidine-5-carboxamide]"
7,< 200,"C[C@@H]1CC[C@@H](Nc2nc(NC34CC(C(F)(F)F)(C3)C4)ncc2C(N)=O)C[C@H]1O [Example 441, 4-((1R,3R,4R)-3-hydroxy-4-methylcyclohexylamino)-2-(3-(trifluoromethyl)bicyclo[1.1.1]pentan-1-ylamino)pyrimidine-5-carboxamide]"
8,< 200,"CCO[C@H]1CC[C@H](Nc2ncc(C(N)=O)c(NC3(C)CCCC3)n2)CC1 [Example 488, 2-((1r,4r)-4-ethoxycyclohexylamino)-4-(1-methylcyclopentylamino)pyrimidine-5-carboxamide]"
9,< 200,"CCO[C@H]1CC[C@H](Nc2ncc(C(N)=O)c(N[C@@H]3CCC[C@H]3CO)n2)CC1 [Example 259, 2-((1r,4R)-4-ethoxycyclohexylamino)-4-((1R,2R)-2-(hydroxymethyl)cyclopentylamino)pyrimidine-5-carboxamide]"
10,< 200,"CC(C)(Nc1nc(N[C@H]2CCCOC2)ncc1C(N)=O)C1CC1 [Example 468, (S)-4-(2-cyclopropylpropan-2-ylamino)-2-(tetrahydro-2H-pyran-3-ylamino)pyrimidine-5-carboxamide]"
11,< 200,"CC(C)C(C)(C)Nc1ncc(C(N)=O)c(N[C@@H]2CC[C@@H](C)[C@H](O)C2)n1 [Example 366, 2-(2,3-dimethylbutan-2-ylamino)-4-((1R,3R,4R)-3-hydroxy-4-methylcyclohexylamino)pyrimidine-5-carboxamide]"
12,< 200,"CN[C@H]1CC[C@H](Nc2ncc(C(N)=O)c(NC(C)C)n2)CC1 [Example 214, 4-(isopropylamino)-2-((1r,4r)-4-(methylamino)cyclohexylamino)pyrimidine-5-carboxamide]"
13,< 200,"C[C@@H]1CC[C@@H](Nc2nc(NC(C)(C)C3CC3)ncc2C(N)=O)C[C@H]1O [Example 397, 2-(2-cyclopropylpropan-2-ylamino)-4-((1R,3R,4R)-3-hydroxy-4-methylcyclohexylamino)pyrimidine-5-carboxamide]"
14,< 200,"CC(C)(C)Nc1nc(N[C@@H]2CCCC[C@@H](O)C2)ncc1C(N)=O [Example 386, 4-(tert-butylamino)-2-((1R,3R)-3-hydroxycycloheptylamino)pyrimidine-5-carboxamide]"
15,< 200,"CC1(Nc2nc(N[C@H]3CCCOC3)ncc2C(N)=O)CCC1 [Example 403, (S)-4-(1-methylcyclobutylamino)-2-(tetrahydro-2H-pyran-3-ylamino)pyrimidine-5-carboxamide]"
16,< 200,"CCO[C@H]1CC[C@H](Nc2ncc(C(N)=O)c(NC(C)(C)C(C)C)n2)CC1 [Example 273, 4-(2,3-dimethylbutan-2-ylamino)-2-((1r,4r)-4-ethoxycyclohexylamino)pyrimidine-5-carboxamide]"
17,< 200,"C[C@@H]1CC[C@@H](Nc2nc(NC3(C4CC4)CC3)ncc2C(N)=O)C[C@H]1O [Example 474, 2-(bi(cycloprop)ylamino)-4-((1R,3R,4R)-3-hydroxy-4-methylcyclohexylamino)pyrimidine-5-carboxamide]"
18,< 200,"C[C@@H](Nc1nc(N[C@H]2CC[C@H](O)CC2)ncc1C(N)=O)C1CCC1 [Example 298, 4-((R)-1-cyclobutylethylamino)-2-((1r,4R)-4-hydroxycyclohexylamino)pyrimidine-5-carboxamide]"
19,< 200,"CCO[C@H]1CC[C@H](Nc2ncc(C(N)=O)c(NC3C4CC3C4)n2)CC1 (stereo partly shown) [Example 476, 4-(bicyclo[1.1.1]pentan-2-ylamino)-2-((1r,4r)-4-ethoxycyclohexylamino)pyrimidine-5-carboxamide]"
20,< 200,"NC(=O)c1cnc(NC2CCOCC2)nc1NC12CC(C1)C2 [Example 407, 4-(bicyclo[1.1.1]pentan-1-ylamino)-2-(tetrahydro-2H-pyran-4-ylamino)pyrimidine-5-carboxamide]"
21,< 200,"CC1CCC1Nc1nc(N[C@H]2CC[C@H](O)CC2)ncc1C(N)=O (stereo partly shown) [Example 247, 2-((1r,4r)-4-hydroxycyclohexylamino)-4-(2-methylcyclobutylamino)pyrimidine-5-carboxamide]"

# Same assay, conditions: tested in one or more of the JNK1 biochemical assays; read-out: Act. Level (JNK1 biochemical assay IC50 activity level)
row,IC50 [nM],SMILES
1,< 200,"NC(=O)c1cnc(N[C@H]2CC[C@H](O)CC2)nc1NC1CCCC1 [Example A-148, 4-(cyclopentylamino)-2-((1r,4r)-4-hydroxycyclohexylamino)pyrimidine-5-carboxamide]"
2,200 to 800,"CN(C)C(=O)[C@H]1CC[C@@H](Nc2nc(NC3CCOCC3)ncc2C(N)=O)CC1 [Example A-116, 4-((1s,4s)-4-(dimethylcarbamoyl)cyclohexylamino)-2-(tetrahydro-2H-pyran-4-ylamino)pyrimidine-5-carboxamide]"
3,< 200,"CO[C@H]1CC[C@H](Nc2ncc(C(N)=O)c(N[C@H]3CC[C@@H](C(=O)N(C)C)CC3)n2)CC1 [Example A-118, 4-((1s,4s)-4-(dimethylcarbamoyl)cyclohexylamino)-2-((1r,4r)-4-methoxycyclohexylamino)pyrimidine-5-carboxamide]"
4,< 200,"NC(=O)c1cnc(NC2CCCC2)nc1N[C@H]1CC[C@@H](O)CC1 [Example A-128, 2-(cyclopentylamino)-4-((1s,4s)-4-hydroxycyclohexylamino)pyrimidine-5-carboxamide]"
5,< 200,"CC(C)CC(=O)N1CCC(Nc2ncc(C(N)=O)c(N[C@H]3CC[C@@H](O)C3)n2)CC1 [Example A-87, 4-((1S,3R)-3-hydroxycyclopentylamino)-2-(1-(3-methylbutanoyl)piperidin-4-ylamino)pyrimidine-5-carboxamide]"
6,1000 to 10000,"CNC(=O)[C@H]1CC[C@@H](Nc2nc(NC3CCCC3)ncc2C(N)=O)CC1 [Example A-130, 2-(cyclopentylamino)-4-((1s,4s)-4-(methylcarbamoyl)cyclohexylamino)pyrimidine-5-carboxamide]"
7,< 200,"C[C@]1(O)CCC[C@@H](Nc2nc(NC3CCOCC3)ncc2C(N)=O)C1 [Example A-169, 4-((1R,3S)-3-hydroxy-3-methylcyclohexylamino)-2-(tetrahydro-2H-pyran-4-ylamino)pyrimidine-5-carboxamide]"

# From patent publication US12129237B2, “Substituted diaminocarboxamide and diaminocarbonitrile pyrimidines, compositions thereof, and methods of treatment therewith” (SIGNAL PHARMACEUTICALS, LLC, priority 2011, dated 2024)
